Measured values taken from patent US8535661B2, “Enzymatically active compositions for suppressing sulfide generation and methods of use thereof” (LCP Tech Holdings LLC, priority 2007, dated 2013).

Legend:
[1] = tested on: Sulfide-Producing Bacteria; details: reported biocide treatment levels; cited from earlier work
bacteria = test: Bacterial counts in treated contaminated metalworking fluid samples; format: cell-based
Procedure: (§1) A used metalworking fluid from a Midwest automotive plant and a soluble oil having a high sulfate content were used to prepare synthetic effluent by combining about 200 ml of the oil with about four gallons (about 15 L) of water and one gallon (about 3.84 L) of the contaminated metal working fluid. The mixture was allowed to stand for about ten days and smelled of hydrogen sulfide by the end of this period. The mixture was then stirred and 15 samples (about 500 mL each) were removed and placed in separate containers. The containers were allowed to stand, open to the air, for about 4 additional days, after which time the aerobic bacterial count in each of the sample was measured using Biosan BF test strips. All of the samples contained >10′ bacteria/mL and smelled of hydrogen sulfide, indicating the presence of anaerobic bacteria, as well. The 15 samples, at neutral pH, were then individually treated with different biocides and combinations of biocides with the enzymatic composition of Example 1. The bacterial and yeast/mold counts in each sample were monitored over about 14 days.

yeast and mold = test: Mold and yeast counts in treated contaminated metalworking fluid samples; format: cell-based
Procedure: as §1

SRB = test: Hydrogen sulfide from containers with SRB-contaminated sugar beet pond water
Procedure: A leachate from a sugar beet pond contaminated with SRB was fed into three 5-gallon containers filled with a nutrient source, sulfate and water. The contents in each container consisted of about 500 mL of SRB-contaminated sugar beet pond water, about 3.84 liters of vinegar (about 5% acetic acid content) about 450 mL of 0.5 N sulfuric acid, about 150 g of sodium hydroxide to adjust the pH to about 6.8, the normal pH and enough additional water to achieve a total volume of about 5 gallons. Nitrogen gas was continuously passed through the each container to eliminate any oxygen and to provide a gas flow in which to measure hydrogen sulfide generated in each container. About 500 ppm of a 10% solution of sodium hypochlorite was added to one of the reactors. An identical amount hypochlorite was added to another reactor, along with about 500 ppm of the composition of Example 1. About 500 ppm of the composition of Example 1 was added to the third container (without hypochlorite). The hydrogen sulfide level in the nitrogen gas stream from each container was monitored over time. The container treated only with the composition of the invention went to zero hydrogen sulfide production over about seven days, and stayed at zero for about four days thereafter. The container treated with bleach alone went to zero within six days and remained at zero for less than one day. […] The hydrogen sulfide concentration from the container treated with both hypochlorite and the composition of Example 1 fell to zero over about 13 days and remained at zero for greater than eight days. From the data in FIG. 4, it is clear that the enzymatically active compositions of the invention can work cooperatively with inexpensive biocidal compositions such as hypochlorite to effectively extend the useful lifetime of inexpensive biocides such as hypochlorite.

Desulfovibrio vulgaris = test: Sulfide concentration in nitrogen stream from Desulfovibrio vulgaris cultures; format: cell-based; details: about 10 mM sodium nitrate; decrease after about 9 hours
Procedure: Laboratory studies were conducted by growing cultures of Desulfovibrio vulgaris, available from NCIMB Ltd, Aberdeen, Scotland, UK as NCIMB 8303 (see Postgate, J. R., The Sulfate-Reducing Bacteria, 2nd Ed., Cambridge University Press, Cambridge; 1984) in 100 mL aliquots of mCSB containing 12 mM sodium sulfate, 30 mM sodium lactate and 10 mM sodium nitrate in one-liter serum bottles sealed with butyl rubber stoppers, which were flushed with nitrogen and autoclaved at about 120° C. prior to use. A 2% inoculum of freshly prepared D. vulgaris culture was added to the medium in each bottle and incubated at about 30° C. Each culture was grown to mid-log phase to achieve a sulfide concentration of about 12.2±1.4 mM before adding about 25 mL of an aqueous 100 ppm solution of the enzymic composition of Example 1 to each culture. Each culture was then sparged with 99.99% pure nitrogen gas and the pH was adjusted to 6.4 using a dilute solution of nitric acid. The sulfide concentration in the nitrogen stream from each culture bottle was monitored as a function of time.

[2] = about 500 ppm of each agent (hypochlorite as 10% solution), pH about 6.8

Compound | Minimum Concentration that prevents sulfide production [1] | Bacterial Counts (bacteria; Day 0) | Bacterial Counts (bacteria; Day 1) | Bacterial Counts (bacteria; Day 3) | Bacterial Counts (bacteria; Day 4) | Bacterial Counts (bacteria; Day 6) | Bacterial Counts (bacteria; Day 8) | Bacterial Counts (bacteria; Day 10) | Bacterial Counts (bacteria; Day 12) | Bacterial Counts (bacteria; Day 14) | Mold and Yeast Counts (yeast and mold; Day 0) | Mold and Yeast Counts (yeast and mold; Day 1) | Mold and Yeast Counts (yeast and mold; Day 3) | Mold and Yeast Counts (yeast and mold; Day 4) | Mold and Yeast Counts (yeast and mold; Day 6) | Mold and Yeast Counts (yeast and mold; Day 8) | Mold and Yeast Counts (yeast and mold; Day 10) | Mold and Yeast Counts (yeast and mold; Day 12) | Mold and Yeast Counts (yeast and mold; Day 14) | further results
O=CCCCC=O [Glutaraldehyde] | 500 mg/L |  |  |  |  |  |  |  |  |  |  |  |  |  |  |  |  |  |  | 
[O]=[Mo](=[O])([O-])[O-] [Molybdate] | 120 mg/L |  |  |  |  |  |  |  |  |  |  |  |  |  |  |  |  |  |  | 
O=NO [Nitrite] | 230 mg/L |  |  |  |  |  |  |  |  |  |  |  |  |  |  |  |  |  |  | 
OCCN1CN(CCO)CN(CCO)C1 [Sample 3, hexahydro-1,3,5-tris(2-hydroxyethyl)-s-triazine] |  | >10^7 bacteria/mL | <100 bacteria/mL | <100 bacteria/mL | 100 bacteria/mL | 1000 bacteria/mL | 10^4 bacteria/mL | >10^7 bacteria/mL | 10^6 bacteria/mL | >10^7 bacteria/mL | 10^4 | 0 | 0 | 0 | 10 | 10 | 10^3 | 10^4 | 10^3 | 
OCCN1CN(CCO)CN(CCO)C1 [Sample 4, hexahydro-1,3,5-tris(2-hydroxyethyl)-s-triazine] |  | >10^7 bacteria/mL | <100 bacteria/mL | 100 bacteria/mL | 100 bacteria/mL | 1000 bacteria/mL | 10^5 bacteria/mL | >10^7 bacteria/mL | >10^7 bacteria/mL | >10^7 bacteria/mL | 10^3 | 0 | 0 | 0 | 0 | 100 | 10 | 100 | 100 | 
CCCCNC(=O)OCC#CI [Sample 7, 3-iodo-2-propynyl butyl carbamate] |  | >10^7 bacteria/mL | <100 bacteria/mL | <100 bacteria/mL | 100 bacteria/mL | 100 bacteria/mL | 100 bacteria/mL | 1000 bacteria/mL | 10^4 bacteria/mL | 10^5 bacteria/mL | 10^3 | 0 | 0 | 0 | 0 | 100 | 10 | 100 | 10^3 | 
CCCCNC(=O)OCC#CI [Sample 8, 3-iodo-2-propynyl butyl carbamate] |  | >10^7 bacteria/mL | <100 bacteria/mL | <100 bacteria/mL | 100 bacteria/mL | 100 bacteria/mL | 100 bacteria/mL | 10^4 bacteria/mL | 10^5 bacteria/mL | >10^7 bacteria/mL | 10^4 | 0 | 0 | 0 | 100 | 10^3 | 10^3 | 10^3 | 10^3 | 
OCl [hypochlorite, sodium hypochlorite] |  |  |  |  |  |  |  |  |  |  |  |  |  |  |  |  |  |  |  | time hydrogen sulfide stayed at zero (SRB; [2]): less than one; time to zero hydrogen sulfide production (SRB; [2]): six; additional suppression of hydrogen sulfide production (SRB; after another identical dose of hypochlorite): less than one
O=[N+]([O-])[O-].[Na+] [sodium nitrate] |  |  |  |  |  |  |  |  |  |  |  |  |  |  |  |  |  |  |  | extent of decrease in sulfide production relative to the decrease observed with the composition of Example 1 (Desulfovibrio vulgaris): 10-15%
Benzalkonium chloride | 50 mg/L |  |  |  |  |  |  |  |  |  |  |  |  |  |  |  |  |  |  | 
tetrakis(hydroxymethyl)phosphonium sulfate [Sample 13] |  | >10^7 bacteria/mL | <100 bacteria/mL | <100 bacteria/mL | 100 bacteria/mL | 1000 bacteria/mL | 1000 bacteria/mL | >10^5 bacteria/mL | 10^6 bacteria/mL | >10^7 bacteria/mL | 10^3 | 0 | 0 | 0 | 0 | 100 | 10 | 100 | 10^3 | 
tetrakis(hydroxymethyl)phosphonium sulfate [Sample 14] |  | >10^7 bacteria/mL | <100 bacteria/mL | 100 bacteria/mL | 100 bacteria/mL | 1000 bacteria/mL | 10^5 bacteria/mL | >10^7 bacteria/mL | >10^7 bacteria/mL | >10^7 bacteria/mL | 10^4 | 0 | 0 | 0 | 100 | 10^3 | 10^3 | 10^3 | 10^3 | 
